Assay results: US11313861B2, “Method of evaluating hepatic glucose uptake capacity” (OTSUKA PHARMACEUTICAL CO., LTD., priority 2016, dated 2022)

How the values were obtained:
[1] = Blood ^13C6-glucose level and expired air Δ^13C after oral ^13C6-glucose, 6-week-old ZDF fatty vs ZDF lean rats; type: in vivo, rat
Method: (§1) To fasted ZDF fatty rats (6 weeks old; n=4) and ZDF lean rats (6 weeks old; n=4) 10 mg/kg of ^13C6-glucose (13C6-Glucose [D-GLUCOSE⋅(U-13C6, 99%)], Cambridge Isotope Laboratories, Inc. (Andover, Mass., USA)) was orally administered. Blood samples and expired air samples were collected over time before and after the administration. The Δ^13C values of the obtained expired air samples were measured by GC/MS. The ^13C6-glucose levels in the blood samples were measured by LC/MS/MS. The fasting blood glucose levels were measured before the glucose administration.

[2] = Blood ^13C6-glucose level and expired air Δ^13C after oral ^13C6-glucose, 7-week-old ZDF fatty vs ZDF lean rats; type: in vivo, rat
Method: as §1, with “(7” for “(6”, “^13C6-glucose” for “^13C6-glucose (13C6-Glucose [D-GLUCOSE⋅(U-13C6, 99%)], Cambridge Isotope Laboratories, Inc. (Andover, Mass., USA))”

[3] = Blood ^13C6-glucose level and expired air Δ^13C after oral ^13C6-glucose, iLIRKO vs IRflox mice; type: in vivo, mouse
From the text: iLIRKO mouse (inducible liver-specific insulin receptor KO mice) can be used as a model for stage B of pre-onset diabetes, the stage of decreased hepatic extraction ratio, because knock out of insulin receptors can be induced only in the liver (Michael M D, et al., Loss of insulin signaling in hepatocytes leads to severe insulin resistance and progressive hepatic dysfunction. Mol Cell 2000; 6 (1): 87-97). To iLIRKO mice (2 to 3 months old, n=5) and IRflox mice (2 to 3 months old, n=5, control) 10 mg/kg of ^13C6-glucose was orally administered. Blood samples and expired air samples were collected over time before and after the administration. The Δ^13C values of the obtained expired air samples were measured by GC/MS. The ^13C6-glucose levels in the blood samples were measured by LC/MS/MS.

[4] = rat, in vivo, po, 10 mg/kg
Method: To unfasted rats (ZDF lean, ZDF fatty, SD, each n=12) 10 mg/kg of ^13C6-glucose was orally administered. […] The blood ^13C6-glucose level was measured by LC/MS/MS.

[5] = rat, in vivo, 10 mg/kg
Method: To unfasted ZDF fatty rats (18 weeks old; n=6), ZDF lean rats (18 weeks old; n=6) and SD rats (14 weeks old; n=3) 10 mg/kg of ^13C6-glucose was orally administered. Expired air samples were collected over time before and after the administration and the Δ^13C values of the samples were measured by GC/MS. Three days after the oral administration, 10 mg/kg of ^13C6-glucose was intravenously administered to the same unfasted rats. Expired air samples were collected over time before and after the administration and the Δ^13C values of the samples were measured by GC/MS.
The AUCs of the Δ^13C values were calculated for the oral administration and the intravenous administration, and the difference of the AUCs was calculated. The difference is shown in FIG. 5 as the amount of hepatic glucose uptake (hepatic extraction). […] The mutation is homozygous in the ZDF fatty rats.

SMILES: OC[C@H]1OC(O)[C@H](O)[C@@H](O)[C@@H]1O (stereo partly drawn) [^13C6-glucose, D-GLUCOSE⋅(U-13C6, 99%)]
- blood ^13C6 glucose levels ([1]; fasted 6-week-old ZDF fatty rats vs ZDF lean rats, 10 mg/kg oral, LC/MS/MS): remained lower than those of the ZDF Lean rats
- Δ^13C values of the expired air samples ([1]; rat, in vivo, po, 10 mg/kg): kept higher than those of the ZDF lean rats
- blood ^13C6 glucose levels ([2]; fasted 7-week-old ZDF fatty rats vs ZDF lean rats, 10 mg/kg oral, LC/MS/MS): remained higher than those of the ZDF Lean rats
- Δ^13C values of the expired air samples ([2]; rat, in vivo, po, 10 mg/kg): kept higher than those of the ZDF lean rats
- blood ^13C6 glucose levels ([3]; iLIRKO mice vs IRflox mice, 10 mg/kg oral, LC/MS/MS): kept higher than those of IRflox mice
- Δ^13C values of the expired air samples ([3]; mouse, in vivo, po, 10 mg/kg): kept higher than those of IRflox mice
- hepatic extraction ratio of ^13C6-glucose [4]: high in order of the SD rats, the ZDF lean rats, and the ZDF fatty rats
- amount of hepatic glucose uptake (hepatic extraction), difference of the AUCs of Δ^13C between oral and intravenous administration [5]: high in order of the SD rats, the ZDF lean rats, and the ZDF fatty rats
